# According to ChEMBL document CHEMBL6103628, “Structural Optimization of Covalent Inhibitors for Deubiquitinase ChlaDUB1 of Chlamydia trachomatis as Antibiotic Agents” (J Med Chem, 2025):
# The source made the active and inactive calls. The calls are words filed in the database; no cut-off is given here.
# Columns and labels:
# [1] = molecular target: T1, Ubiquitin carboxyl-terminal hydrolase 25 (Homo sapiens) (UniProt Q9UHP3); experiment: Inhibition of human USP25 at 35 uM relative to control
# T1 sequence (whole entry): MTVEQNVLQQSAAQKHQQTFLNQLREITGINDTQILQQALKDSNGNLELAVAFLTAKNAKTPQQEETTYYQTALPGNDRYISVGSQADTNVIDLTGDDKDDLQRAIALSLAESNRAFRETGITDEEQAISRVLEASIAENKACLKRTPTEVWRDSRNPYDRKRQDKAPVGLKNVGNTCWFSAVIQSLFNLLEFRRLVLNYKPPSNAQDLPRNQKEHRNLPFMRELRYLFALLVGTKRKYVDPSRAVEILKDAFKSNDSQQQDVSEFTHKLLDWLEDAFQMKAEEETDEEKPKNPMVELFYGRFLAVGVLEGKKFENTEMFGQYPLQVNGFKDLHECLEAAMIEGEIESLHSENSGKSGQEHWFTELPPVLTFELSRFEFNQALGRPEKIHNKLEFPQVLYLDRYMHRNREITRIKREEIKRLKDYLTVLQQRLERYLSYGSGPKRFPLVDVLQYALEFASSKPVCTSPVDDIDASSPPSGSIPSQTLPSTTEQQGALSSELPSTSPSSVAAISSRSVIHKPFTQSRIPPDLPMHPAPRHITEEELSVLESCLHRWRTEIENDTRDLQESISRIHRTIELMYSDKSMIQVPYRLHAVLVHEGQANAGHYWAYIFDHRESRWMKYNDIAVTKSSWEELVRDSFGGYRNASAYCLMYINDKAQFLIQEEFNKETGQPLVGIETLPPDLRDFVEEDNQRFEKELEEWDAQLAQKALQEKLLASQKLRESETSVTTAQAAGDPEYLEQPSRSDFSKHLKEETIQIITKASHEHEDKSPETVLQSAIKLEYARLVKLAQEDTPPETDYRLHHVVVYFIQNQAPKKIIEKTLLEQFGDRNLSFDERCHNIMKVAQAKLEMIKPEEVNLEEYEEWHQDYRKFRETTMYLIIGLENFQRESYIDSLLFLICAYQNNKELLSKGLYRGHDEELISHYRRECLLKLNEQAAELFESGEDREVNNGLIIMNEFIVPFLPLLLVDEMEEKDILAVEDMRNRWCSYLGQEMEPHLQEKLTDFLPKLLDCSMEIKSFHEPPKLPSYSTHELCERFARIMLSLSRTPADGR
# [2] = molecular target: Ubiquitin carboxyl-terminal hydrolase 7 (Homo sapiens) (UniProt Q93009); experiment: Inhibition of human USP7 at 35 uM relative to control
# Chain of Ubiquitin carboxyl-terminal hydrolase 7 (Homo sapiens) (Q93009 whole entry, looked up, the tested form may be a part): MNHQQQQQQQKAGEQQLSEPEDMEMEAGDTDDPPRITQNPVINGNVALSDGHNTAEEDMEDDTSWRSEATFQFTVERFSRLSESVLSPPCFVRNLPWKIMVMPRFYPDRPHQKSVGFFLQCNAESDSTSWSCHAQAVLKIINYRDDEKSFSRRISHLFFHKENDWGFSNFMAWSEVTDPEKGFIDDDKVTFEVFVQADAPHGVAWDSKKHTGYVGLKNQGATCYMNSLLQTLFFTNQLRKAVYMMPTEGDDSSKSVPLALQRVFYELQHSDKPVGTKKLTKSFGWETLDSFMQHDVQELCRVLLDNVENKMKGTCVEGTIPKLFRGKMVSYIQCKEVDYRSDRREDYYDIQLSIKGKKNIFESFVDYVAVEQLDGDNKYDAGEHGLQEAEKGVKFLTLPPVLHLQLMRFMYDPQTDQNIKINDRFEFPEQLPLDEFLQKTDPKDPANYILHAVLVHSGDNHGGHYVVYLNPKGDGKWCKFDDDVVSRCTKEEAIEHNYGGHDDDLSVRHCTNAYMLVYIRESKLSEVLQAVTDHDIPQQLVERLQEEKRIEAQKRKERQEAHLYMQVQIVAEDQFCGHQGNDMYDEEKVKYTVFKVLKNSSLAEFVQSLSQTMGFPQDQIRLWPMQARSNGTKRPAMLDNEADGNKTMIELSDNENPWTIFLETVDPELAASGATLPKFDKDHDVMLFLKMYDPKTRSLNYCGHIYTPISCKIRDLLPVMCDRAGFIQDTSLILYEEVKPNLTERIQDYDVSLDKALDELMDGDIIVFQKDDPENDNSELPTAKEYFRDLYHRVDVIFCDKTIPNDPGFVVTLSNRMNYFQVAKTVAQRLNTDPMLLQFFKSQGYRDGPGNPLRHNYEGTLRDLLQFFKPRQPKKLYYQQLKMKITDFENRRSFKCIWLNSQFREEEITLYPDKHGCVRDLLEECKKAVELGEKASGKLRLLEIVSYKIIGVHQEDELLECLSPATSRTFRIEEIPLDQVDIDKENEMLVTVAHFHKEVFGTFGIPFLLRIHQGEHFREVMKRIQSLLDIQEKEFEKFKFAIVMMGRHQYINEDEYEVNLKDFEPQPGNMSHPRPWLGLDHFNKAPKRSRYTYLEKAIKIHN
# [3] = molecular target: T2, OTU domain-containing protein 3 (Homo sapiens) (UniProt Q5T2D3); experiment: Inhibition of human OTUD3 at 35 uM relative to control
# T2 sequence (whole entry): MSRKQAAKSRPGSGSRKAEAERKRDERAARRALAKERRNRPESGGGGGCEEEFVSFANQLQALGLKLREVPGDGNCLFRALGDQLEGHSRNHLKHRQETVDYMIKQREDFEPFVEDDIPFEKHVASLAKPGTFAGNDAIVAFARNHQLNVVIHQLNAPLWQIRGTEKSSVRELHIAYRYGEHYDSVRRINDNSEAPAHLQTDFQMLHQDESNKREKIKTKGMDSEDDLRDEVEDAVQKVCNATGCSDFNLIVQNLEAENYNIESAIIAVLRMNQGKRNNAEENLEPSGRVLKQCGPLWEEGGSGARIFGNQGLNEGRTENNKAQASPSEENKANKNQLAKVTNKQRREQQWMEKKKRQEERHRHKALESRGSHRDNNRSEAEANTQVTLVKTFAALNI
# [4] = molecular target: T3, Ubiquitin thioesterase OTUB2 (Homo sapiens) (UniProt Q96DC9); experiment: Inhibition of human OTUB2 at 35 uM relative to control
# T3 sequence (whole entry): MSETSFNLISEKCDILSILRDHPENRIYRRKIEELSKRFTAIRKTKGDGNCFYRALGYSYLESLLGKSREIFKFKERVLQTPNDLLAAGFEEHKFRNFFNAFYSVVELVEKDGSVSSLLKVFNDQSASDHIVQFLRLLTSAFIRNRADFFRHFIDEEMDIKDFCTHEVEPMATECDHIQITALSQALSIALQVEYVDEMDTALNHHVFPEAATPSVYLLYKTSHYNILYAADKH
# [5] = molecular target: T4, Ubiquitin carboxyl-terminal hydrolase isozyme L3 (Homo sapiens) (UniProt P15374); experiment: Inhibition of human UCHL3 at 35 uM relative to control
# T4 sequence (whole entry): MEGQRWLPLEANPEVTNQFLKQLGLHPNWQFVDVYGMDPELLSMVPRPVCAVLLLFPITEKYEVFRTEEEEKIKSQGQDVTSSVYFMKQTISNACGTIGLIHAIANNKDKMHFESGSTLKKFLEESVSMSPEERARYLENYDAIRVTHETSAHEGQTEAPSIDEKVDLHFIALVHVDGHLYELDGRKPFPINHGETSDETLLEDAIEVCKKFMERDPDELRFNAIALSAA
# [6] = molecular target: Ubiquitin carboxyl-terminal hydrolase isozyme L1 (Homo sapiens) (UniProt P09936); experiment: Inhibition of human UCHL1 at 35 uM relative to control
# Chain of Ubiquitin carboxyl-terminal hydrolase isozyme L1 (Homo sapiens) (P09936 whole entry, looked up): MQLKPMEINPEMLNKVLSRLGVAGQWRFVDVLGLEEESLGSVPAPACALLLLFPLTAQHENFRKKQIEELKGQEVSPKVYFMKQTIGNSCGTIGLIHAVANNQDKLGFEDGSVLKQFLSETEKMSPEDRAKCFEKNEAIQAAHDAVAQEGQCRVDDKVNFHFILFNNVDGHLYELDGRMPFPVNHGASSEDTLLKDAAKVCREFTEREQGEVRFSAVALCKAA
# [7] = molecular target: T5, Deubiquitinase and deneddylase Dub2 (Chlamydia trachomatis) (UniProt O84875); experiment: Mixed type inhibition of Chlamydia trachomatis DUB2 incubated for 60 mins
# T5 sequence (whole entry): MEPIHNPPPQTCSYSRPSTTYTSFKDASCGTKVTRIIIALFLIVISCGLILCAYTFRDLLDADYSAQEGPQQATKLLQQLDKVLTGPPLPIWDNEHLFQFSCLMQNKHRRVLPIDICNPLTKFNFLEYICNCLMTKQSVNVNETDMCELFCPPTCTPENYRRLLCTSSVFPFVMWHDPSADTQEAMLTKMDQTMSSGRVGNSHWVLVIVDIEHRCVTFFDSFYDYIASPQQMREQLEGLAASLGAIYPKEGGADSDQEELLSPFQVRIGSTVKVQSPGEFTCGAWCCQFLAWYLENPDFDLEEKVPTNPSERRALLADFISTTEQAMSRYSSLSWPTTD
# [8] = tested on: HEp-2; experiment: Cytotoxicity against human HEp-2 cells assessed as reduction in cell viability at 4 to 256 ug/mL measured after 20 hrs by XTT assay; format: toxicity, cell-based; conditions: hep-2, 20 h, dose 4-256 µg/ml
# [9] = Cytotoxicity against HDFa cells assessed as reduction in cell viability at 16 ug/mL measured after 20 hrs by XTT assay; format: toxicity, cell-based; conditions: human, dose 16 µg/ml
compound,measurement,setting,value
N#Cc1nccc(C(=O)NCc2nn(C(=O)Cc3ccccc3)c3ccccc23)n1,inhibition,[1],< 25%
same,inhibition,[2],< 25%
same,inhibition,[3],< 25%
same,inhibition,[4],< 25%
same,inhibition,[5],< 25%
same,inhibition,[6],< 25%
same,inhibition,[7],Active
same,Activity,[8],Non-toxic
same,Activity,[9],Toxic
